Test results as given in patent publication US7462600B2, “Macrolides” (Pfizer Inc, priority 2004, dated 2008).
Values after ≈ are worked out from the molar mass of the structure shown. Read-outs that look alike come from different tables or passages of the source.

Columns and labels:
Format in all cases: cell-based
[1] = test system: Streptococcus pneumoniae 1016; experiment: MIC, microtiter broth dilution (NCCLS M100-S14), S. pneumoniae 1016 (susceptible)
How it was run: (§1)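 Steps: dissolve compound in DMSO to 40 mg/ml stock; dilute in broth across microtiter trays; inoculate strains; record MIC per NCCLS M100-S14.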

[2] = test system: Haemophilus influenzae 1218; experiment: MIC, microtiter broth dilution (NCCLS M100-S14), H. influenzae 1218 (susceptible)
How it was run: as §1

[3] = test system: Streptococcus pyogenes 1079; experiment: MIC, microtiter broth dilution (NCCLS M100-S14), S. pyogenes 1079 (ermB)
How it was run: as §1

[4] = test system: Streptococcus pneumoniae 1175; conditions: microtiter broth dilution
How it was run: as §1

[5] = test system: Streptococcus pneumoniae 1095; conditions: microtiter broth dilution
How it was run: as §1

[6] = S. pneumoniae 1016 (susceptible)
[7] = H. influenzae 1218 (susceptible)

| Compound | MIC S. pneumo. 1016 [1, 6] [µg/mL] | MIC H. influenzae 1218 [2, 7] [µg/mL] | MIC S. pyogenes 1079 ([3]; S. pyogenes 1079 (ermB)) [µg/mL] | MIC S. pneumo. 1175 ([4]; S. pneumoniae 1175 (mefA)) [µg/mL] | MIC S. pneumo. 1095 ([5]; S. pneumoniae 1095 (ermB)) [µg/mL] | MIC S. pneumo. 1016 ([1]; Streptococcus pneumoniae 1016) [µg/mL] | MIC H. influenzae 1218 ([2]; Haemophilus influenzae 1218) [µg/mL] | MIC S. pyogenes 1079 ([3]; Streptococcus pyogenes 1079) [µg/mL] | MIC S. pneumo. 1175 ([4]; Streptococcus pneumoniae 1175) [µg/mL] | MIC S. pneumo. 1095 ([5]; Streptococcus pneumoniae 1095) [µg/mL] |
| --- | --- | --- | --- | --- | --- | --- | --- | --- | --- | --- |
| CCC1OC(=O)C(C)C(=O)C(C)C(OC2OC(C)CC(N(C)C)C2O)C(C)(OC)CC(C)C(=O)C(C)C2N(CC3CCN(Cc4ccno4)CC3)C(=O)OC12C (stereo not drawn) [15.09] | <0.06 | 16 (≈ 20.2 µM) | >64.00 | 0.5 (≈ 0.632 µM) | >64.00 | – | – | – | – | – |
| CCC1OC(=O)C(C)C(=O)C(C)C(OC2OC(C)CC(N(C)C)C2O)C(C)(OC)CC(C)C(=O)C(C)C2N(CC3CCCN3C(=O)c3cnc4ncccc4c3)C(=O)OC12C (stereo not drawn) [10.38] | <0.06 | 1 (≈ 1.17 µM) | >64.00 | 0.5 (≈ 0.587 µM) | <0.06 | – | – | – | – | – |
| CCC1OC(=O)C(C)(F)C(=O)C(C)C(OC2OC(C)CC(N(C)C)C2O)C(C)(OC)CC(C)C(=O)C(C)C2N(C3CN(Cc4ccnc5ncccc45)C3)C(=O)OC12C (stereo not drawn) [Example 1.33, 3-descladinosyl-11,12-dideoxy-2-fluoro-6-O-methyl-3-oxo-12,11-(oxycarbonyl-(1-((1,8-naphthyridin-4-yl)-methyl)-azetidin-3-yl)-imino)-erythromycin A] | – | – | – | – | – | <0.06 | 0.25 (≈ 0.302 µM) | 0.25 (≈ 0.302 µM) | <0.06 | <0.06 |
| CCC1OC(=O)C(C)C(=O)C(C)C(OC2OC(C)CC(N(C)C)C2O)C(C)(OC)CC(C)C(=O)C(C)C2N(CC3CCCN3Cc3ccno3)C(=O)OC12C (stereo not drawn) [10.01] | <0.06 | 1 (≈ 1.29 µM) | >64.00 | 0.5 (≈ 0.644 µM) | 0.25 (≈ 0.322 µM) | – | – | – | – | – |
| CC[C@H]1OC(=O)[C@H](C)[C@@H](OC(=O)N2CCCC2)[C@H](C)[C@@H](O[C@@H]2O[C@H](C)C[C@H](N(C)C)[C@H]2O)[C@](C)(OC)C[C@@H](C)C(=O)[C@H](C)[C@H]2N(CC3CN(Cc4cccc5cccnc45)C3)C(=O)O[C@]12C [Example 5.08, 2-R^2: (quinolin-8-yl)methyl; R^#: pyrrolidin-1-yl] | – | – | – | – | – | <0.06 | 2 (≈ 2.17 µM) | 16 (≈ 17.4 µM) | <0.06 | 0.25 (≈ 0.271 µM) |
| CC[C@H]1OC(=O)[C@H](C)[C@@H](OC(=O)N2CCCC2)[C@H](C)[C@@H](O[C@@H]2O[C@H](C)C[C@H](N(C)C)[C@H]2O)[C@](C)(OC)C[C@@H](C)C(=O)[C@H](C)[C@H]2N(CC3CN(Cc4nccc5ccccc45)C3)C(=O)O[C@]12C [Example 5.09, 2-R^2: (isoquinolin-1-yl)methyl; R^#: pyrrolidin-1-yl] | – | – | – | – | – | <0.06 | 2 (≈ 2.17 µM) | 64 (≈ 69.4 µM) | <0.06 | 1 (≈ 1.08 µM) |
| CCC1OC(=O)C(C)C(=O)C(C)C(OC2OC(C)CC(N(C)C)C2O)C(C)(OC)CC(C)C(=O)C(C)C2N(CC3C4CN(C(=O)c5cccc(C#N)c5)CC43)C(=O)OC12C (stereo not drawn) [16.05] | 0.01 (≈ 0.0119 µM) | 0.5 (≈ 0.597 µM) | 3.12 (≈ 3.73 µM) | 1.56 (≈ 1.86 µM) | 1.56 (≈ 1.86 µM) | – | – | – | – | – |
| CCC1OC(=O)C(C)C(=O)C(C)C(OC2OC(C)CC(N(C)C)C2O)C(C)(OC)CC(C)C(=O)C(C)C2N(C3CCN(Cc4cncc5ccccc45)C3)C(=O)OC12C (stereo not drawn) [Example 9.10, (isoquinolin-4-yl)methyl] | <0.06 | 0.5 (≈ 0.608 µM) | 64 (≈ 77.8 µM) | 0.25 (≈ 0.304 µM) | 8 (≈ 9.72 µM) | – | – | – | – | – |
| CCC1OC(=O)C(C)C(=O)C(C)C(OC2OC(C)CC(N(C)C)C2O)C(C)(OC)CC(C)C(=O)C(C)C2N(C3CN(Cc4ccc(OC)c5nccnc45)C3)C(=O)OC12C (stereo not drawn) [Example 1.105] | – | – | – | – | – | <0.063 | 1 (≈ 1.19 µM) | 8 (≈ 9.52 µM) | 0.125 (≈ 0.149 µM) | <0.063 |
| CCC1OC(=O)C(C)C(=O)C(C)C(OC2OC(C)CC(N(C)C)C2O)C(C)(OC)CC(C)C(=O)C(C)C2N(C3CN(Cc4ccncc4F)C3)C(=O)OC12C (stereo not drawn) [Example 1.78, 3-descladinosyl-11,12-dideoxy-6-O-methyl-3-oxo-12,11-(oxycarbonyl-(1-(3-fluoropyridine-4-methyl)-azetidin-3-yl)-imino)-erythromycin A] | – | – | – | – | – | <0.063 | 1 (≈ 1.29 µM) | 4 (≈ 5.15 µM) | <0.063 | <0.063 |
| CCC1OC(=O)C(C)C(=O)C(C)C(OC2OC(C)CC(N(C)C)C2O)C(C)(OC)CC(C)C(=O)C(C)C2N(CC3CN(C(=O)c4ccc5cccnc5n4)C3)C(=O)OC12C.O=CO (stereo not drawn) [4.40] | – | – | – | – | – | <0.06 | 4 | >64.00 | 0.5 | 8 |
| CCC1OC(=O)C(C)C(=O)C(C)C(OC2OC(C)CC(N(C)C)C2O)C(C)(OC)CC(C)C(=O)C(C)C2N(CC3CN(Cc4cnc5cnccn45)C3)C(=O)OC12C (stereo not drawn) [4.28] | – | – | – | – | – | <0.06 | 0.25 (≈ 0.308 µM) | >64.00 | 1 (≈ 1.23 µM) | 8 (≈ 9.84 µM) |
| CCC1OC(=O)C(C)C(=O)C(C)C(OC2OC(C)CC(N(C)C)C2O)C(C)(OC)CC(C)C(=O)C(C)C2N(C3CN(S(=O)(=O)c4ccc(-c5nnn[nH]5)cc4)C3)C(=O)OC12C (stereo not drawn) [Example 3.84, 4-(1H-tetrazol-5-yl)benzenesulfonyl] | – | – | – | – | – | 1 (≈ 1.14 µM) | 32 (≈ 36.5 µM) | >64.00 | 16 (≈ 18.3 µM) | >64.00 |
| CCC1OC(=O)C(C)C(=O)C(C)C(OC2OC(C)CC(N(C)C)C2O)C(C)(OC)CC(C)C(=O)C(C)C2N(C3CN(S(=O)(=O)c4cccc(-c5csnn5)c4)C3)C(=O)OC12C (stereo not drawn) [Example 3.63, 3-descladinosy-11,12-dideoxy-6-O-methyl-3-oxo-12,11-(oxycarbonyl-(1-(3-(1,2,3-thiadiazol-4-yl)benzenesulfonyl)-azetidin-3-yl)-imino)-erythromycin A] | – | – | – | – | – | <0.06 | <0.06 | 0.25 (≈ 0.28 µM) | <0.06 | <0.06 |
| CCC1OC(=O)C(C)C(=O)C(C)C(OC2OC(C)CC(N(C)C)C2O)C(C)(OC)CC(C)C(=O)C(C)C2N(C3CN(C(=O)c4ccc(-c5noc(C)n5)cc4)C3)C(=O)OC12C (stereo not drawn) [Example 2.12] | – | – | – | – | – | <0.06 | 32 (≈ 37.5 µM) | >64.00 | 0.25 (≈ 0.293 µM) | 2 (≈ 2.34 µM) |
| CCC1OC(=O)C(C)C(=O)C(C)C(OC2OC(C)CC(N(C)C)C2O)C(C)(OC)CC(C)C(=O)C(C)C2N(C3CN(S(=O)(=O)c4ccccc4F)C3)C(=O)OC12C (stereo not drawn) [Example 3.07, 2-fluorobenzenesulfonyl] | – | – | – | – | – | <0.06 | 0.5 (≈ 0.605 µM) | 16 (≈ 19.4 µM) | <0.06 | <0.06 |
| CCC1OC(=O)C(C)C(=O)C(C)C(OC2OC(C)CC(N(C)C)C2O)C(C)(OC)CC(C)C(=O)C(C)C2N(C3CN(S(=O)(=O)c4cccc5ccccc45)C3)C(=O)OC12C (stereo not drawn) [Example 3.02, 3-descladinosyl-11,12-dideoxy-6-O-methyl-3-oxo-12,11-(oxycarbonyl-(1-(naphthalene-1-sulfonyl)-azetidin-3-yl)-imino)-erythromycin A] | – | – | – | – | – | <0.06 | 0.12 (≈ 0.14 µM) | 0.5 (≈ 0.583 µM) | <0.06 | <0.06 |
| CCC1OC(=O)C(C)C(=O)C(C)C(OC2OC(C)CC(N(C)C)C2O)C(C)(OC)CC(C)C(=O)C(C)C2N(CC3CN(Cc4ccc5cnccn45)C3)C(=O)OC12C (stereo not drawn) [4.24] | – | – | – | – | – | <0.06 | 0.5 (≈ 0.616 µM) | 64 (≈ 78.8 µM) | <0.06 | 0.5 (≈ 0.616 µM) |
